Experimental data reported in ChEMBL document CHEMBL6114979, “Discovery of 3-indolylbenzoquinone derivatives with therapeutic potential for breast cancer” (Bioorg Med Chem, 2025).
Converted amounts (≈) assume the structure as drawn. The source made the active and inactive calls. No cut-off for these calls is given here.

Experiments:
MDA-MB-231 [1] = test: Induction of apoptosis in human MDA-MB-231 cells assessed as increase in red fluorescence at 1 uM incubated for 24 hrs in presence of doxorubicin by fluorescence microscopic analysis; format: functional, cell-based
[2] = Toxicity in female Balb/c mouse implanted with mouse 4T1 cells assessed as abnormalities in kidney at 35 mg/kg, ip administered once every 2 days for 14 days; format: organism-based; conditions: in vivo, 336 h, time 14 day
[3] = Toxicity in Kunming mouse assessed as change in liver lesions at 240 to 469 mg/kg, ip administered for 14 days by H and E staining based analysis; format: organism-based; conditions: in vivo, 336 h, dose 240-469 mg/kg, time 14 day
4T1 [4] = test: Antitumor activity against mouse 4T1 cells implanted in Balb/c mouse assessed as appearance of extensive tumor cell necrosis at 25 mg/kg, ip administered once every 2 days for 14 days; format: functional, organism-based; conditions: time 14.0 day
4T1 [5] = test: Antitumor activity against mouse 4T1 cells implanted in Balb/c mouse assessed as reduction in tumor size at 25 to 35 mg/kg, ip administered once every 2 days 14 days; format: functional, organism-based; conditions: dose 25-35 mg/kg, time 14.0 day
[6] = Toxicity in Kunming mouse assessed as change in spleen lesions at 240 to 469 mg/kg, ip administered for 14 days by H and E staining based analysis; format: organism-based; conditions: in vivo, 336 h, dose 240-469 mg/kg, time 14 day
[7] = Hepatotoxicity in Kunming mouse assessed as change in ALT level administered intraperitoneally for 14 days (reference value: 45.75 +/- 4.65 U); format: toxicity; conditions: in vivo, ip, 336 h, time 14 day
[8] = Toxicity in female Balb/c mouse implanted with mouse 4T1 cells assessed as change in body weight at 200 mg/kg, TOP administration once every 2 days for 14 days; format: organism-based; conditions: in vivo, topical_or_ocular, 336 h, time 14 day
4T1 [9] = test: Antitumor activity against mouse 4T1 cells implanted in Balb/c mouse assessed as appearance of larger intercellular gaps at 80 mg/kg, IT administered once every 4 days for 14 days in presence of olive oil by TEM analysis; format: functional, organism-based; conditions: time 14.0 day
[10] = Toxicity in female Balb/c mouse implanted with mouse 4T1 cells assessed as change in body weight at 25 to 35 mg/kg, ip administered once every 2 days; format: organism-based; conditions: in vivo, 48 h, dose 25-35 mg/kg, time 2 day
4T1 [11] = test: Antitumor activity against mouse 4T1 cells implanted in Balb/c mouse assessed as appearance of vacuolation at 80 mg/kg, IT administered once every 4 days for 14 days in presence of olive oil by TEM analysis; format: functional, organism-based; conditions: time 14.0 day
[12] = Hepatotoxicity in Kunming mouse assessed as change in AST level administered intraperitoneally for 14 days (reference value: 153.25 +/- 15.26 U); format: toxicity; conditions: in vivo, ip, 336 h, time 14 day
MDA-MB-231 [13] = test: Induction of cell cycle arrest in human MDA-MB-231 cells assessed as accumulation of cells at G2/M phase at 1 uM incubated for 24 hrs by PI staining based flow cytometric analysis (reference value: 33.98%); format: functional
[14] = Nephrotoxicity in Kunming mouse assessed as change in BUN level administered intraperitoneally for 14 days (reference value: 8.65 +/- 2.66 U); format: toxicity; conditions: in vivo, ip, 336 h, time 14 day
[15] = Toxicity in Kunming mouse assessed as change in heart lesions at 240 to 469 mg/kg, ip administered for 14 days by H and E staining based analysis; format: organism-based; conditions: in vivo, 336 h, dose 240-469 mg/kg, time 14 day
4T1 [16] = test: Antitumor activity against mouse 4T1 cells implanted in Balb/c mouse assessed as smaller tumor at 200 mg/kg, TOP administration once every 2 days for 14 days; format: functional, organism-based; conditions: time 14.0 day
[17] = Toxicity in female Balb/c mouse implanted with mouse 4T1 cells assessed as abnormal behaviour at 80 mg/kg, IT administered once every 4 days in presence of olive oil; format: organism-based; conditions: in vivo, other, 96 h
[18] = Toxicity in Kunming mouse assessed as appearance of mononuclear macrophages in alveolar lumen at 240 to 469 mg/kg, ip administered for 14 days by H and E staining based analysis; format: organism-based; conditions: in vivo, 336 h, dose 240-469 mg/kg, time 14 day
[19] = Toxicity in female Balb/c mouse implanted with mouse 4T1 cells assessed as tumor metastasis to lungs at 25 mg/kg, ip administered once every 2 days for 14 days; format: organism-based; conditions: in vivo, 336 h, time 14 day
4T1 [20] = test: Antitumor activity against mouse 4T1 cells implanted in Balb/c mouse assessed as reduction in tumor size at 80 mg/kg, IT administered once every 4 days in presence of olive oil; format: functional, organism-based
4T1 [21] = test: Antitumor activity against mouse 4T1 cells implanted in Balb/c mouse assessed as appearance of vacuolation at 25 to 35 mg/kg, ip administered once every 2 days for 14 days by TEM analysis; format: functional, organism-based; conditions: dose 25-35 mg/kg, time 14.0 day
4T1 [22] = test: Antitumor activity against mouse 4T1 cells implanted in Balb/c mouse assessed as damage in endoplasmic reticulum at 200 mg/kg, TOP administration once every 2 days for 14 days; format: functional, organism-based; conditions: time 14.0 day
MDA-MB-231 [23] = test: Induction of apoptosis in human MDA-MB-231 cells assessed as viable cells at 1 uM incubated for 24 hrs by Annexin-V/PI staining based flow cytometric analysis (reference value: 93.37%); format: functional; conditions: read-out: Activity
[24] = Toxicity in Kunming mouse assessed as change in lung morphology at 240 to 469 mg/kg, ip administered for 14 days by H and E staining based analysis; format: organism-based; conditions: in vivo, 336 h, dose 240-469 mg/kg, time 14 day
[25] = Toxicity in female Balb/c mouse implanted with mouse 4T1 cells assessed as abnormalities in heart at 35 mg/kg, ip administered once every 2 days for 14 days; format: organism-based; conditions: in vivo, 336 h, time 14 day
4T1 [26] = test: Antitumor activity against mouse 4T1 cells implanted in Balb/c mouse assessed as appearance of mitochondrial swelling at 200 mg/kg, TOP administration once every 2 days for 14 days; format: functional, organism-based; conditions: time 14.0 day
[27] = Nephrotoxicity in Kunming mouse assessed as change in CREA level administered intraperitoneally for 14 days (reference value: 16 +/- 2.45 U); format: toxicity; conditions: in vivo, ip, 336 h, time 14 day
MDA-MB-231 [28] = test: Induction of apoptosis in human MDA-MB-231 cells assessed as early apoptotic cells at 1 uM incubated for 24 hrs by Annexin-V/PI staining based flow cytometric analysis (reference value: 2.69%); format: functional
[29] = Solubility of compound in 0.1 M HCL; format: physicochemical
4T1 [30] = test: Antitumor activity against mouse 4T1 cells implanted in Balb/c mouse assessed as appearance of mitochondrial swelling at 80 mg/kg, IT administered once every 4 days for 14 days in presence of olive oil by TEM analysis; format: functional, organism-based; conditions: time 14.0 day
MDA-MB-231 [31] = test: Induction of cell cycle arrest in human MDA-MB-231 cells assessed as accumulation of cells at S phase at 1 uM incubated for 24 hrs by PI staining based flow cytometric analysis (reference value: 8.71%); format: functional
4T1 [32] = test: Antitumor activity against mouse 4T1 cells implanted in Balb/c mouse assessed as appearance of loosely arranged tumor cells at 35 mg/kg, ip administered once every 2 days for 14 days; format: functional, organism-based; conditions: time 14.0 day
[33] = Cardiotoxicity in Kunming mouse assessed as change in CK level administered intraperitoneally for 14 days (reference value: 851.75 +/- 87.81 U); format: toxicity; conditions: in vivo, ip, 336 h, time 14 day

Cc1[nH]c2ccccc2c1C1=C(F)C(=O)C(F)=C(N2CCOCC2)C1=O
Activity (MDA-MB-231 [1]): Active; Compound Showed More Effect Than Mitoxantrone Treated Group | Activity [2]: Non-toxic | Activity [3]: Non-toxic | Activity (4T1 [4]): Active | Activity (4T1 [5]): Active | Activity [6]: Non-toxic | Activity [7]: 28.8 U/L | Activity [8]: Non-toxic | Activity (4T1 [9]): Active | Activity [10]: Non-toxic | Activity (4T1 [11]): Active | Activity [12]: 106 U/L | Activity (MDA-MB-231 [13]): 63.64% | Activity [14]: 6.26 U | Activity [15]: Non-toxic | Activity (4T1 [16]): Active | Activity [17]: Non-toxic | Activity [18]: Toxic | Activity [19]: Toxic | Activity (4T1 [20]): Active | Activity (4T1 [21]): Active | Activity (4T1 [22]): Active | viability at 1 µM (MDA-MB-231 [23]): 45.1% | Activity [24]: Non-toxic | Activity [25]: Non-toxic | Activity (4T1 [26]): Active | Activity [27]: 12.25 U | Activity (MDA-MB-231 [28]): 24.53% | solubility [29]: 19 µg/mL (≈ 53 µM) | Activity (4T1 [30]): Active | Activity (MDA-MB-231 [31]): 4.21% | Activity (4T1 [32]): Active | Activity [33]: 812 U/L
